{"source": "paper PMC3927474", "about": "“Whole body synthesis rates of DHA from α-linolenic acid are greater than brain DHA accretion and uptake rates in adult rats” (Journal of Lipid Research, 2014)", "assay": "Whole body fatty acids by GC-FID, balance study", "type": "in vivo, rat", "conditions": "15 wk diet", "description": "Carcasses were thawed overnight in a refrigerator at 3°C, cut into pieces, and passed through a #12 hand grinder. After the whole body had passed through the grinder once, the homogenate was mixed together by hand and passed at least one more time through the grinder until the mixture was sufficiently homogeneous. Due to the small size of the pups all of the 21-day-old pup bodies were passed through the grinder together.\nA portion of the whole body homogenate was weighed and further homogenized (done in duplicate for each 18-week-old rat and the baseline homogenate) using a Polytron benchtop homogenizer (Brinkman Instruments, Toronto, ON, Canada) in a mixture of chloroform:methanol:0.88%KCl (2:1:0.8 by volume) ([28]). The mixture was centrifuged at 500 g for 10 min, and the chloroform layer was extracted. New chloroform was added to the remaining aqueous phase, the mixture was once again centrifuged, and the chloroform layer was extracted and added to the previously extracted chloroform layer. This total lipid extract (TLE) was evaporated under N2, reconstituted in a known volume of chloroform, and stored under N2 at −80°C until further analysis.\nA known amount of heptadecanoic acid (17:0; Nu-Check Prep, Elysian, MN) was added to the TLE. Samples were transmethylated using 14% boron trifluoride in methanol at 100°C for 1 h. Fatty acid methyl esters (FAMEs) were extracted with hexane and quantified using GC-FID. FAMEs were analyzed using a Varian-430 gas chromatograph (Varian, Lake Forest, CA) equipped with a Varian FactorFour capillary column (VF-23ms; 30 m × 0.25 mm interior diameter × 0.25 μm film thickness) and a FID. Samples were injected in splitless mode. The injector and detector ports were set at 250°C. […] The carrier gas was helium, set to a constant flow rate of 0.7 ml/min. Peaks were identified by retention times of authentic FAME standards (Nu-Chek Prep). The concentration of each fatty acid was calculated by comparison with the internal standard (17:0) ([29]). The concentrations were expressed on a per gram basis then multiplied by total weight of the tissue to determine the total amount of each fatty acid in the tissue."}
{"smiles": "CC/C=C\\C/C=C\\C/C=C\\CCCCCCCC(=O)O", "note": "[ALA, α-linolenic acid]", "values": [{"measurement": "Whole body fatty acids: 12:0", "result": 23532, "unit": "µmol"}, {"measurement": "Whole body fatty acids: 14:0", "result": 17606, "unit": "µmol"}, {"measurement": "Whole body fatty acids: 14:1n-7", "result": 1331, "unit": "µmol"}, {"measurement": "Whole body fatty acids: 16:0", "result": 44604, "unit": "µmol"}, {"measurement": "Whole body fatty acids: 16:1n-7", "result": 16111, "unit": "µmol"}, {"measurement": "Whole body fatty acids: 18:0", "result": 6101, "unit": "µmol"}, {"measurement": "Whole body fatty acids: 18:1n-7", "result": 7553, "unit": "µmol"}, {"measurement": "Whole body fatty acids: 18:1n-9", "result": 38781, "unit": "µmol"}, {"measurement": "Whole body fatty acids: 18:2n-6", "result": 29104, "unit": "µmol"}, {"measurement": "Whole body fatty acids: 18:3n-3", "result": 1557, "unit": "µmol"}, {"measurement": "Whole body fatty acids: 18:3n-6", "result": 67, "unit": "µmol"}, {"measurement": "Whole body fatty acids: 20:1n-9", "result": 189, "unit": "µmol"}, {"measurement": "Whole body fatty acids: 20:2", "result": 194, "unit": "µmol"}, {"measurement": "Whole body fatty acids: 20:3n-3", "result": 137, "unit": "µmol"}, {"measurement": "Whole body fatty acids: 22:4n-6", "result": 155, "unit": "µmol"}, {"measurement": "Whole body fatty acids: 22:5n-3", "result": 101, "unit": "µmol"}, {"measurement": "Whole body fatty acids: 22:5n-6", "result": 124, "unit": "µmol"}, {"measurement": "Whole body fatty acids: ARA (20:4n-6)", "result": 1954, "unit": "µmol"}, {"measurement": "Whole body fatty acids: DHA (22:6n-3)", "result": 481, "unit": "µmol"}, {"measurement": "Whole body fatty acids: EPA (20:5n-3)", "result": 76, "unit": "µmol"}]}
